Laboratory results published in US10035801B2, “Pyrazolo compounds and uses thereof” (CONSTELLATION PHARMACEUTICALS, INC., priority 2013, dated 2018).
Where two headings read alike, the source gives them in different places.

Target: T1, KDM5A (Homo sapiens, UniProt P29375)
T1 construct: Full length KDM5A enzyme was expressed and purified inhouse; made in house
Assay: KDM5 enzyme assay, KDM5A HTRF (Example 463)
Assay type: biochemical

[1] = compounds of Examples 1-432, read-out: Example 463 Assay KDM5A HTRF IC50

T1 sequence (P29375 whole entry): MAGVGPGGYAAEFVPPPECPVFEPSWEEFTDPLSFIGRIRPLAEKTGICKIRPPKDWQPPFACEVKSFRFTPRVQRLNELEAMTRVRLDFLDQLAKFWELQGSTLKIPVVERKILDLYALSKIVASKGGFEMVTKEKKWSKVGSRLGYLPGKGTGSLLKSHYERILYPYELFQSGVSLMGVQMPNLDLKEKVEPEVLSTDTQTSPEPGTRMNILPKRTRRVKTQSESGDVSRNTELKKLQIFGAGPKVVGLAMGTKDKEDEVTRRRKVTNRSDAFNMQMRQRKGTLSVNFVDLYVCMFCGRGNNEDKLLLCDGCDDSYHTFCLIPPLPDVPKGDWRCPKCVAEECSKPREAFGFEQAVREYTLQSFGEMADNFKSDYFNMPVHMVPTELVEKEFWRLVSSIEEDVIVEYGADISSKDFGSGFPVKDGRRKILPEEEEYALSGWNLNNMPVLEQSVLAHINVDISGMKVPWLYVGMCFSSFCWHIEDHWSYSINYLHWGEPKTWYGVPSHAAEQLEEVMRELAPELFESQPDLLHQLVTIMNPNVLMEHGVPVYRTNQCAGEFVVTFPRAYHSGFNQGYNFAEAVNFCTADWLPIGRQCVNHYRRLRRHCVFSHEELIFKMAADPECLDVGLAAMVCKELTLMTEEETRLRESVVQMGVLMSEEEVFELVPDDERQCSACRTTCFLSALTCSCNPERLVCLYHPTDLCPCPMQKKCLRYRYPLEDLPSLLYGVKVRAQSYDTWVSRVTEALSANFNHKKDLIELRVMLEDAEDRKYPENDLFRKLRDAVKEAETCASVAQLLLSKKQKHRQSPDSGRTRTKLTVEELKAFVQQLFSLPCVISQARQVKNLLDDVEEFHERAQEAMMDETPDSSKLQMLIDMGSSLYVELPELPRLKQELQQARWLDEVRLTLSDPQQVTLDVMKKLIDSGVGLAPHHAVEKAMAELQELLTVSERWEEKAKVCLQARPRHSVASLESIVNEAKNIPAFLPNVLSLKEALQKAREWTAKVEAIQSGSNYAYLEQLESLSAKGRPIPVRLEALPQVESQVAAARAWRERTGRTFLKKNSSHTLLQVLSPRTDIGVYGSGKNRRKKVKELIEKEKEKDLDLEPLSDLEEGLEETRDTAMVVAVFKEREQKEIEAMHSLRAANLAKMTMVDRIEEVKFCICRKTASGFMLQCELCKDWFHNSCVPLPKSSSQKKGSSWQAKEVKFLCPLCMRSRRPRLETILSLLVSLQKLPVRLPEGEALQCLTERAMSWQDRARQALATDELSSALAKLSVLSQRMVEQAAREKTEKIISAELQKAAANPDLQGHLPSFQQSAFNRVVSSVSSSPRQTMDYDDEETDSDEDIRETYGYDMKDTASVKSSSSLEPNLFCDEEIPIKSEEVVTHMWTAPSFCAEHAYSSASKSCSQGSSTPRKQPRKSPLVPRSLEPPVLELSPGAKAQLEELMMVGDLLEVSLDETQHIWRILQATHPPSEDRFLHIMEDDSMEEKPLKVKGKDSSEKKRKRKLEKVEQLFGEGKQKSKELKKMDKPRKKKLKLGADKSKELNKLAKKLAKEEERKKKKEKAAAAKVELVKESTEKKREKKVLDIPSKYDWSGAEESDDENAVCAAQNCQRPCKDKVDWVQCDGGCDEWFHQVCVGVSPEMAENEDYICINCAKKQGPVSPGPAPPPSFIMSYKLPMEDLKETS

SMILES | IC50 [1] [µM] | IC50 [µM]
CC(C)c1c(-c2cccc(C#N)c2)n(C)c2c(C#N)cnn2c1=O [Example 166] | 0.2 | 
CC(C)c1c(-c2cnn(C)c2)n(C)c2c(C#N)cnn2c1=O [Example 167] | 0.1 | 
CC(C)c1c(-c2cccs2)n(C)c2c(C#N)cnn2c1=O [Example 168] | 0.046 | 
CC(C)c1c(-c2ccsc2)n(C)c2c(C#N)cnn2c1=O [Example 169] | 0.047 | 
CC(C)c1c(C2=CCOC2)n(C)c2c(C#N)cnn2c1=O [Example 170] | 0.21 | 
CC(C)c1c(-c2ccn[nH]2)n(C)c2c(C#N)cnn2c1=O [Example 171] | 0.037 | 
CC(C)c1c(-c2ccc(C(F)(F)F)cc2)n(C)c2c(C#N)cnn2c1=O [Example 172] | 0.14 | 
COc1ccc(-c2c(C(C)C)c(=O)n3ncc(C#N)c3n2C)cc1 [Example 173] | 0.039 | 
CC(C)c1c(-c2ccccc2F)n(C)c2c(C#N)cnn2c1=O [Example 174] | 0.081 | 
CC(C)c1c(-c2cccc(-c3ccccc3)c2)n(C)c2c(C#N)cnn2c1=O [Example 175] | 0.043 | 
CCc1c(-c2cccc(-c3ccccc3)c2)n(C)c2c(C#N)cnn2c1=O [Example 176] | 0.052 | 
CCc1c(-c2ccco2)n(C)c2c(C#N)cnn2c1=O [Example 177] | 0.038 | 
CC(C)c1c(-c2ccco2)n(C)c2c(C#N)cnn2c1=O [Example 178] | 0.043 | 
C=Cc1c(C(C)C)c(=O)n2ncc(C#N)c2n1C [Example 179] | 0.035 | 
C=C(C)c1c(C(C)C)c(=O)n2ncc(C#N)c2n1C [Example 180] | 0.061 | 
CC(C)c1c(-c2cnn(Cc3ccccc3)c2)n(C)c2c(C#N)cnn2c1=O [Example 181] | 0.06 | 
CCc1c(-c2cnn(Cc3ccccc3)c2)n(C)c2c(C#N)cnn2c1=O [Example 182] | 0.13 | 
CC(C)c1c(-c2ccc(F)cc2)n(C)c2c(C#N)cnn2c1=O [Example 183] | 0.033 | 
CC(C)c1c(-c2ccc(C#N)cc2)n(C)c2c(C#N)cnn2c1=O [Example 184] | 0.056 | 
CC(C)c1c(-c2ccc(-c3ccccc3)o2)n(C)c2c(C#N)cnn2c1=O [Example 185] | 0.02 | 
CC(C)c1c(-c2cn[nH]c2)n(C)c2c(C#N)cnn2c1=O [Example 186] | 0.049 | 
CC(C)c1c(-c2cc(-c3ccccc3)co2)n(C)c2c(C#N)cnn2c1=O [Example 187] | 0.75 | 
CC(C)c1c(-c2ccc(=O)n(C)c2)n(C)c2c(C#N)cnn2c1=O [Example 188] | 0.24 | 

SMILES | IC50 [1] [µM] | IC50 [µM]
CCn1cc(-c2c(C(C)C)c(=O)n3ncc(C#N)c3n2C)cn1 [Example 189] | 0.16 | 
CC(C)c1c(-c2cc(C3CC3)co2)n(C)c2c(C#N)cnn2c1=O [Example 190] | 0.057 | 
CCc1c(C)n(CC)c2c(C#N)cnn2c1=O [Example 191] | 0.76 | 
CCCn1c(C)c(CC)c(=O)n2ncc(C#N)c12 [Example 192] | 1.5 | 
CCc1c(C)n(CC2CC2)c2c(C#N)cnn2c1=O [Example 193] | 0.86 | 
CCc1c(C)n(CCOC)c2c(C#N)cnn2c1=O [Example 194] | 2.3 | 
CCc1c(C)n(CCO)c2c(C#N)cnn2c1=O [Example 195] | 2.2 | 
Cc1c(C(C)C)c(=O)n2ncc(C#N)c2n1C [Example 196] | 0.047 | 
CC(C)c1c[nH]c2c(C#N)cnn2c1=O [Example 197] |  | 0.029
CC(C)c1cn(C)c2c(C#N)cnn2c1=O [Example 198] | 0.61 | 
CCOC(=O)c1c(CC)c(=O)n2ncc(C#N)c2n1C [Example 199] | 0.18 | 
CCc1c(C(=O)O)n(C)c2c(C#N)cnn2c1=O [Example 200] | 0.9 | 
CCc1c(C(N)=O)[nH]c2c(C#N)cnn2c1=O [Example 201] | 0.029 | 
CCc1c(-c2cc[nH]c2)[nH]c2c(C#N)cnn2c1=O [Example 202] | 0.006 | 
CC(C)c1c(-c2cc[nH]c2)[nH]c2c(C#N)cnn2c1=O [Example 203] | 0.011 | 
CC(C)c1c(-c2ccc3c(c2)OC(F)(F)O3)[nH]c2c(C#N)cnn2c1=O [Example 204] | 0.019 | 
CC(C)c1c(-c2ccc(C(N)=O)c(F)c2)[nH]c2c(C#N)cnn2c1=O [Example 205] | 0.023 | 
CC(C)c1c(-c2ccc(S(C)(=O)=O)c(F)c2)[nH]c2c(C#N)cnn2c1=O [Example 206] | 0.021 | 
CC(C)c1c(-c2ccc(OC(F)(F)F)c(Cl)c2)[nH]c2c(C#N)cnn2c1=O [Example 207] | 0.033 | 
CC(C)c1c(-c2cc(F)cc(C(N)=O)c2)[nH]c2c(C#N)cnn2c1=O [Example 208] | 0.009 | 
COc1ccc(-c2[nH]c3c(C#N)cnn3c(=O)c2C(C)C)cc1CO [Example 209] | 0.018 | 
CC(C)c1c(-c2ccn(S(C)(=O)=O)c2)[nH]c2c(C#N)cnn2c1=O [Example 210] | 0.012 | 
CC(C)c1c(-c2ccn(C)c2)[nH]c2c(C#N)cnn2c1=O [Example 211] | 0.024 | 

SMILES | IC50 [1] [µM] | IC50 [µM]
CC(C)c1c(-c2cc3ccccc3[nH]2)[nH]c2c(C#N)cnn2c1=O [Example 212] | 0.008 | 
CC(C)c1c(NC(=O)C2CC2)[nH]c2c(C#N)cnn2c1=O [Example 213] | 0.018 | 
CC(C)c1c(NC(=O)c2ccccc2)[nH]c2c(C#N)cnn2c1=O [Example 214] | 0.026 | 
N#Cc1cnn2c(=O)cc(-c3cccc(Br)c3)[nH]c12 [Example 215] | 0.41 | 
N#Cc1cnn2c(=O)c(Cl)c(-c3ccccc3)[nH]c12 [Example 216] | 0.02 | 
Cc1[nH]c2c(C#N)cnn2c(=O)c1-c1ccccc1 [Example 217] | 2.1 | 
Cn1c(-c2ccccc2)c(Br)c(=O)n2ncc(C#N)c12 [Example 218] | 8 | 
Cn1c(-c2ccccc2)c(Cl)c(=O)n2ncc(C#N)c12 [Example 219] | 4.3 | 
Cc1[nH]c2c(C#N)cnn2c(=O)c1Sc1ccccc1Cl [Example 220] | 21 | 
Cc1c(-c2ccccc2)c(=O)n2ncc(C#N)c2n1C [Example 221] | 25 | 
N#Cc1cnn2c(=O)c(CCF)c(-c3ccccc3)[nH]c12 [Example 222] | 0.012 | 
C=CCc1c(-c2ccccc2)[nH]c2c(C#N)cnn2c1=O [Example 223] | 0.009 | 
C=C(C)c1c(-c2ccccc2)[nH]c2c(C#N)cnn2c1=O [Example 224] |  | 0.025
CC#CCc1c(-c2ccccc2)[nH]c2c(C#N)cnn2c1=O [Example 225] | 5.4 | 
Cn1c(-c2ccccc2)c(C2CC2)c(=O)n2ncc(C#N)c12 [Example 226] | 0.37 | 
CCc1c(-c2cccc(-c3cnn(C)c3)c2)[nH]c2c(C#N)cnn2c1=O [Example 227] | 0.013 | 
CCc1c(-c2cccc(-c3cnn(C(C)C)c3)c2)[nH]c2c(C#N)cnn2c1=O [Example 228] | 0.023 | 
Cn1c(-c2ccccc2)c(-c2ccncc2)c(=O)n2ncc(C#N)c12 [Example 229] | 9.6 | 
CCc1c(-c2ccc(-c3ccccc3)cc2)[nH]c2c(C#N)cnn2c1=O [Example 230] | 0.009 | 
C/C=C/Cc1c(-c2ccccc2)[nH]c2c(C#N)cnn2c1=O [Example 231] | 0.17 | 
CCc1c(-c2ccc(Nc3ccc(F)cc3)cc2)[nH]c2c(C#N)cnn2c1=O [Example 232] | 0.019 | 
CCc1c(-c2cccc(NC(=O)OC(C)(C)C)c2)[nH]c2c(C#N)cnn2c1=O [Example 233] | 0.02 | 
N#Cc1cnn2c(=O)c(I)c(-c3ccccc3)[nH]c12 [Example 234] | 0.015 | 

SMILES | IC50 [1] [µM] | IC50 [µM]
C#CC(C)c1c(-c2ccccc2)[nH]c2c(C#N)cnn2c1=O (centres unmarked) [Example 235] | 0.014 | 
CCC(C)c1c(-c2ccccc2)[nH]c2c(C#N)cnn2c1=O (centres unmarked) [Example 236] | 0.018 | 
CC(=O)N1CC=C(c2[nH]c3c(C#N)cnn3c(=O)c2C(C)C)CC1 [Example 237] | 0.078 | 
CCC(=O)N1CC=C(c2[nH]c3c(C#N)cnn3c(=O)c2C(C)C)CC1 [Example 238] | 0.049 | 
C=CC(=O)N1CC=C(c2[nH]c3c(C#N)cnn3c(=O)c2C(C)C)CC1 [Example 239] | 0.021 | 
CC(C)c1c(C2=CCN(C)CC2)[nH]c2c(C#N)cnn2c1=O [Example 240] | 0.05 | 
Cc1nc(Cn2cc(-c3[nH]c4c(C#N)cnn4c(=O)c3C(C)C)cn2)cs1 [Example 241] | 0.013 | 
CC(=O)NCCn1cc(-c2[nH]c3c(C#N)cnn3c(=O)c2C(C)C)cn1 [Example 242] | 0.027 | 
CC(C)c1c(-c2cc(Cl)cc(Cl)c2)[nH]c2c(C#N)cnn2c1=O [Example 243] | 0.02 | 
CC(C)c1c(-c2ccc(S(C)(=O)=O)cc2F)[nH]c2c(C#N)cnn2c1=O [Example 244] | 0.021 | 
CCC(C)(C)n1cc(-c2[nH]c3c(C#N)cnn3c(=O)c2C(C)C)cn1 [Example 245] | 0.046 | 
CC(C)c1c(-c2ccc(F)c(Cl)c2)[nH]c2c(C#N)cnn2c1=O [Example 246] | 0.022 | 
CC(C)c1c(-c2cccc(CCN3CCOCC3)c2)[nH]c2c(C#N)cnn2c1=O [Example 247] | 0.015 | 
CC(C)c1c(-c2cccc(CCN(C)C)c2)[nH]c2c(C#N)cnn2c1=O [Example 248] | 0.069 | 
CC(CO)c1c(-c2ccccc2)[nH]c2c(C#N)cnn2c1=O (centres unmarked) [Example 249] | 0.03 | 
CC(=O)NCCCCc1c(-c2ccccc2)[nH]c2c(C#N)cnn2c1=O [Example 250] | 5.7 | 
CC(=O)NCCCc1c(-c2ccccc2)[nH]c2c(C#N)cnn2c1=O [Example 251] | 8 | 
N#Cc1cnn2c(=O)c(CCCCN)c(-c3ccccc3)[nH]c12 [Example 252] | 7.63 | 
CC(C)c1c(-c2cnn(C(C)c3cscn3)c2)[nH]c2c(C#N)cnn2c1=O (centres unmarked) [Example 253] | 0.013 | 
CC(C)c1c(-c2cnn(C3CCOCC3)c2)[nH]c2c(C#N)cnn2c1=O [Example 254] | 0.033 | 
COc1cc(-c2[nH]c3c(C#N)cnn3c(=O)c2C(C)C)ccc1C(F)(F)F [Example 255] | 0.035 | 
COC(=O)c1cc(-c2[nH]c3c(C#N)cnn3c(=O)c2C(C)C)ccc1Cl [Example 256] | 0.015 | 
CC(C)c1c(-c2ccc(OC(F)(F)F)cc2)[nH]c2c(C#N)cnn2c1=O [Example 257] |  | 0.037
